For data set [1], the target named is T1, rhinovirus 3C protease, serotype 2 (Human rhinovirus 2, UniProt P04936).
T1 construct: Recombinant rhinovirus 3C proteases; made in house
Nature of the data set: Inhibition of rhinovirus 3C protease (FRET assay), serotype 2. Type of data set: biochemical. The note with it: Rhinovirus Serotype (2) 3C protease; read-out: kobs/I. On the procedure:
(§1) Stock solutions (50 mM, in DMSO) of various compounds were prepared; dilutions were in the same solvent. Recombinant rhinovirus 3C proteases (see Birch et al., “Purification of recombinant human rhinovirus 14 3C protease expressed in Escherichia coli,” Protein Expr. Pur. 1995, 6(5), 609-618) from serotypes 14, 16, and 2 were prepared by the following standard chromatographic procedures: (1) ion exchange using Q Sepharose Fast Flow from Pharmacia; (2) affinity chromatography using Affi-Gel Blue from Biorad; and (3) sizing using Sephadex G-100 from Pharmacia. Each assay sample contained 2% DMSO, 50 mM tris pH 7.6, 1 mM EDTA, a test compound at the indicated concentration, approximately 1 μM substrate, and 50-100 nM protease. The kobs/I values were obtained from reactions initiated by addition of enzyme rather than substrate. RVP activity was measured in the fluorescence resonance energy transfer assay. The substrate was (N-terminal) DABCYL-(Gly-Arg-Ala-Val-Phe-Gln-Gly-Pro-Val-Gly)-EDANS. In the uncleaved peptide, the EDANS fluorescence was quenched by the proximal DABCYL moiety. When the peptide was cleaved, the quenching was relieved, and activity was measured as an increase in fluorescence signal. In Table 1, all data are for rhinovirus 3C protease from HRV serotype-14 (produced from the infectious cDNA clone constructed by Dr. Robert Rueckert, Institute for Molecular Virology, University of Wisconsin, Madison, Wis.). […] The data in the column designated kobs/[I] were measured from progress curves in enzyme start experiments.

The next data set has as its system HRV-14. Nature of the data set: Antirhinoviral H1-HeLa cell culture assay, HRV-14. Type of data set: cell-based, human rhinovirus. To be noted: Rhinovirus B, HRV14, H1-HeLa, HRV serotype-14, H1-HeLa cells. On the procedure: In this cell protection assay, the ability of compounds to protect cells against HRV infection was measured by the XTT dye reduction method, which is described in Weislow et al., J. Natl. Cancer Inst. 1989, vol. 81, 577-586.
H1-HeLa cells were infected with HRV-14 at a multiplicity of infection (m.o.i.) of 0.13 (virus particles/cell) or mock-infected with medium only. Infected or mock-infected cells were resuspended at 8×10^5 cells per mL, and incubated with appropriate concentrations of the compounds to be tested. Two days later, XTT/PMS was added to test plates and the amount of formazan produced was quantified spectrophotometrically at 450/650 nm. The EC50 value was calculated as the concentration of compound that increased the percentage of formazan production in compound-treated, virus-infected cells to 50% of that produced by compound-free, mock-infected cells. The 50% cytotoxic dose (CC50) was calculated as the concentration of compound that decreased the percentage of formazan produced in compound-treated, mock-infected cells to 50% of that produced by compound-free, mock-infected cells. The therapeutic index (TI) was calculated by dividing the CC50 value by the EC50 value.
All strains of human rhinovirus (HRV) for use in this assay were purchased from American Type Culture Collection (ATCC), except for HRV serotype-14 (produced from the infectious cDNA clone constructed by Dr. Robert Rueckert, Institute for Molecular Virology, University of Wisconsin, Madison, Wis.). HRV stocks were propagated and viral assays were performed in H1-HeLa cells (ATCC). Cells were grown in minimal essential medium with 10% fetal bovine serum, available from Life Technologies (Gaithersburg, Md.).
The compounds were tested against control compounds WIN 51711, WIN 52084, and WIN 54954 (obtained from Sterling-Winthrop Pharmaceuticals), Pirodavir (obtained from Janssen Pharmaceuticals), and Pleconaril (prepared according to the method described in Diana et al., J. Med. Chem 1995, vol. 38, 1355). Antiviral data obtained for the test compounds are shown in Tables 1 and 3, where all data are for HRV serotype-14 unless otherwise noted in parentheses.

Data set [2] addresses T2, rhinovirus 3C protease, serotype 16 (Human rhinovirus 16, UniProt Q82122).
T2 construct: Recombinant rhinovirus 3C proteases; made in house
Nature of the data set: Inhibition of rhinovirus 3C protease (FRET assay), serotype 16. The data set is classed as biochemical. To be noted: Rhinovirus Serotype (16) 3C protease; read-out: kobs/I. As to the method: Stock solutions (50 mM, in DMSO) of various compounds were prepared; dilutions were in the same solvent. Recombinant rhinovirus 3C proteases (see Birch et al., “Purification of recombinant human rhinovirus 14 3C protease expressed in Escherichia coli,” Protein Expr. Pur. 1995, 6(5), 609-618) from serotypes 14, 16, and 2 were prepared by the following standard chromatographic procedures: (1) ion exchange using Q Sepharose Fast Flow from Pharmacia; (2) affinity chromatography using Affi-Gel Blue from Biorad; and (3) sizing using Sephadex G-100 from Pharmacia. Each assay sample contained 2% DMSO, 50 mM tris pH 7.6, 1 mM EDTA, a test compound at the indicated concentration, approximately 1 μM substrate, and 50-100 nM protease. The kobs/I values were obtained from reactions initiated by addition of enzyme rather than substrate. RVP activity was measured in the fluorescence resonance energy transfer assay. The substrate was (N-terminal) DABCYL-(Gly-Arg-Ala-Val-Phe-Gln-Gly-Pro-Val-Gly)-EDANS. In the uncleaved peptide, the EDANS fluorescence was quenched by the proximal DABCYL moiety. When the peptide was cleaved, the quenching was relieved, and activity was measured as an increase in fluorescence signal. […] The data in the column designated kobs/[I] were measured from progress curves in enzyme start experiments.

Data set [3] addresses T3, rhinovirus 3C protease from HRV serotype-14 (Human rhinovirus 14, UniProt P03303).
T3 construct: Recombinant rhinovirus 3C proteases; made in house
The data set is described as follows: Inhibition of rhinovirus 3C protease (FRET assay), serotype 14. The data set is classed as biochemical. To be noted: HRV serotype-14 3C protease; progress curves in enzyme start experiments; read-out: Protease Inhibition kobs/[I]. On the procedure:
as §1

The mark [4] stands for this setting: Table 1, XTT dye reduction, read-out: Cell Protection EC50.

Read-outs that look alike come from different tables or passages of the source.

T3 sequence (P03303 1538-1719): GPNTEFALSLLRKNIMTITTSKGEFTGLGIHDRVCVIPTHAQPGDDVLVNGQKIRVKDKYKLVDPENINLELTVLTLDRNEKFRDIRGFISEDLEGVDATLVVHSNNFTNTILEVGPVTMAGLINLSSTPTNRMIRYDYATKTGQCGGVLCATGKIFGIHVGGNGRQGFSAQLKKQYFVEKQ
T2 sequence (Q82122 1511-1693): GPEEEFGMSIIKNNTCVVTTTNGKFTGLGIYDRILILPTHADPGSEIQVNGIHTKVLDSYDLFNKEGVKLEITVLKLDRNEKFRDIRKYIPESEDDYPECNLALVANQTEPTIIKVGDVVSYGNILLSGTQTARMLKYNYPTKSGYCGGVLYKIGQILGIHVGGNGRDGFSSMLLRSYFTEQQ
T1 sequence (P04936 1508-1690): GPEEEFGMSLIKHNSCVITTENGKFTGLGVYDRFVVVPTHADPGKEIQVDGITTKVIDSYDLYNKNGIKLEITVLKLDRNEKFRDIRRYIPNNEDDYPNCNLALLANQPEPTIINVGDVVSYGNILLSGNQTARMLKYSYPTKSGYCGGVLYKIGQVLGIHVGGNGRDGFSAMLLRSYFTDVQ

`CCOC(=O)/C=C/[C@H](CCC(N)=O)NC(=O)[C@H](Cc1ccccc1)NC(=O)[C@@H](NC(=O)OCc1ccccc1)C(C)C` [Comparison Compound #3, Ethyl-3-(Cbz-L-Val-L-Phe-L-Gln)-E-Propenoate]: the melting point is 240 °C (dec.). Further, in data set [1], the kinact/KI was determined as 8000 M⁻¹ s⁻¹. Besides, the EC50 in the data set with HRV-14 (setting [4]) worked out at 0.38 µM. The EC50 in the data set with HRV-14 (Table 3, XTT, read-out: EC50) came to 0.38 µM. The kinact/KI in data set [2] came to 16900 M⁻¹ s⁻¹. For the same molecule, in data set [3], the kinact/KI came to 62500 M⁻¹ s⁻¹.

Take `CCOC(=O)/C=C/[C@H](CCC(N)=O)NC(=O)[C@H](Cc1ccccc1)NC(=O)[C@H](CC(C)C)NC(=O)c1ccno1` [Compound A-2, Ethyl-3-((Isoxazole-5′-carbonyl)-L-Leu-L-Phe-L-Gln)-E-Propenoate]: the melting point is 217 to 220 °C. Moreover, in the data set on HRV-14 (setting [4]), the half-maximal effective concentration (EC50) came out at 1.6 µM. Also, the EC50 with HRV-14 (Table 3, XTT, read-out: EC50) worked out at 1.6 µM. Besides, the kinact/KI in data set [3] is 46900 M⁻¹ s⁻¹.

What is called melting point is the temperature, or range, at which the solid turns liquid. By EC50 is commonly meant the concentration needed to bring the measured effect to its halfway point.

For the origin of these results see patent US20060046966A1, “Antipicornaviral compounds and compositions, their pharmaceutical uses, and materials for their synthesis” (Agouron Pharmaceuticals, Inc., priority 1998, published 2006).
